Source: patent US10364216B2, “Alkenyl sulfate ester or salt thereof” (Kao Corporation, priority 2013, dated 2019)
Structures can show the parent of a compound that is named as a salt.

Key:
Assay type in all cases: in vivo, human
[1] = Evaluation of sweetness (3)/(4): sweetness intensity over time against sucrose standard solutions
Experimental: (§1) To seven examiners, 4 kinds of 10 mL aqueous sucrose standard solutions (2.5, 5.0, 7.5 and 10.0 wt %) were presented. The examiners kept each of the solutions in their mouth for 5 seconds or so, and then spat the solution out, and were asked to consider the sweetness intensity at that time (0 to 15) to be 2.5, 5, 7.5 and 10, respectively. Next, the examiners kept 10 mL solution of 10 mM trans-3-octenyl sulfate in their mouth for 5 seconds or so, and then spat the solution out, and compared the sweetness intensity at that time with that of the aqueous sucrose standard solution, and evaluated the sweetness intensity with a number in a range of 0 to 15. Then, the examiners kept 10 mL pure water for 5 minutes at an interval of 30 seconds, and then spat the solution out, and evaluated the sweetness intensity at that time in the same manner.
as §1, with “four” for “4”, “cis-3-octenyl” for “trans-3-octenyl”, “water in their mouth” for “water”

[2] = Evaluation of sweetness (1)/(2): presence or absence of sweetness judged by examiners
Experimental: Trans-3-octenyl sulfate was dissolved in water to be 1 wt %, which was taken as a test sample. Six examiners kept 50 μL of the prepared test sample in their mouth, and then drunk some water, and judged for presence or absence of sweetness.
Cis-3-octenyl sulfate was dissolved in water to 1 wt %, which was taken as a test sample. Four examiners kept 50 μL of the prepared test sample in their mouth, and then drunk some water, and judged presence or absence of sweetness.

[3] = Action of reinforcing sweetness (previous intake of trans-3-octenyl sulfate); details: 5 mM, 60 seconds before sucralose or glycyrrhizin 0.25 mM
Experimental: To six examiners, 4 kinds of 10 mL aqueous solutions of sucrose standard (2.5, 5.0, 7.5 and 10.0 wt %) were presented. The examiners kept each of the solutions in their mouth for 5 seconds or so, and then spat the solution out, and were asked to consider the sweetness intensity at that time (0 to 15) to be 2.5, 5, 7.5 and 10, respectively. Next, the examiners kept 10 mL aqueous solution of sucralose (0.25 mM) in their mouth for 5 seconds or so without knowing the kind and the concentration of the sweetener, and then spat the solution out, and compared the sweetness intensity at that time with that of the aqueous sucrose standard solution, and evaluated the sweetness intensity with a number in a range of 0 to 15. Subsequently, the examiners kept 10 mL solution of 5 mM trans-3-octenyl sulfate in advance in their mouth for 5 seconds or so in advance, and then spat the solution out, and after passage of 60 seconds, the examiners kept 10 mL aqueous solution of sucralose (0.25 mM) in their mouth for 5 seconds or so, and then spat the solution out, and compared the sweetness intensity at that time with that of the aqueous sucrose standard solution, and evaluated the sweetness intensity with a number in a range of 0 to 15.
To six examiners, 4 kinds of 10 mL aqueous sucrose standard solutions (2.5, 5.0, 7.5 and 10.0 wt %) were presented. The examiners kept each of the solutions in their mouth for 5 seconds or so, and then spat the solution out, and were asked to consider the sweetness intensity at that time (0 to 15) to be 2.5, 5, 7.5 and 10, respectively. Next, the examiners kept 10 mL aqueous solution of glycyrrhizin (0.25 mM) in their mouth for 5 seconds or so without knowing the kind and the concentration of the sweetener, and then spat the solution out, and compared the sweetness intensity at that time with that of the aqueous sucrose standard solution, and evaluated the sweetness intensity with a number in a range of 0 to 15. Subsequently, the examiners kept 10 mL solution of 5 mM trans-3-octenyl sulfate in their mouth for 5 seconds or so in advance, and then spat the solution out, and after passage of 60 seconds, the examiners kept 10 mL aqueous solution of glycyrrhizin (0.25 mM) in their mouth for 5 seconds or so, and then spat the solution out, and compared the sweetness intensity at that time with that of the aqueous sucrose standard solution, and evaluated the sweetness intensity with a number in a range of 0 to 15.

[4] = 1 wt % in water, 50 μL kept in mouth, then water (13 ml), six examiners (trans), four examiners (cis)

CCCC/C=C/CCOS(=O)(=O)O [trans-3-octenyl sulfate]
Examiners who recognized the sweetness by virtue of intake of water ([1]; 10 mL of 10 mM solution, then pure water every 30 seconds): Seven out of the seven
Duration of sweetness ([1]; 10 mL of 10 mM solution, then pure water every 30 seconds for 5 minutes): the sweetness lasted for a certain time
Sweetness intensity (mean) ([1]; Time 0 minute, 10 mL of 10 mM solution kept 5 seconds, scale 0 to 15 vs sucrose standards, seven examiners): 0.0
Sweetness intensity (mean) ([1]; Time 0.5 minute, on keeping 10 mL pure water, after 10 mM solution, scale 0 to 15): 1.7
Sweetness intensity (mean) ([1]; Time 1 minute, on keeping 10 mL pure water, after 10 mM solution, scale 0 to 15): 3.6
Sweetness intensity (mean) ([1]; Time 1.5 minute, on keeping 10 mL pure water, after 10 mM solution, scale 0 to 15): 3.9
Sweetness intensity (mean) ([1]; Time 2 minute, on keeping 10 mL pure water, after 10 mM solution, scale 0 to 15): 3.6
Sweetness intensity (mean) ([1]; Time 2.5 minute, on keeping 10 mL pure water, after 10 mM solution, scale 0 to 15): 3.0
Sweetness intensity (mean) ([1]; Time 3 minute, on keeping 10 mL pure water, after 10 mM solution, scale 0 to 15): 2.1
Sweetness intensity (mean) ([1]; Time 3.5 minute, on keeping 10 mL pure water, after 10 mM solution, scale 0 to 15): 1.1
Sweetness intensity (mean) ([1]; Time 4 minute, on keeping 10 mL pure water, after 10 mM solution, scale 0 to 15): 0.8
Sweetness intensity (mean) ([1]; Time 4.5 minute, on keeping 10 mL pure water, after 10 mM solution, scale 0 to 15): 0.5
Sweetness intensity (mean) ([1]; Time 5 minute, on keeping 10 mL pure water, after 10 mM solution, scale 0 to 15): 0.6
No sweetness felt (number of examiners) [2, 4]: 0
Sweetness felt (number of examiners) [2, 4]: 6
Duration of sweetness ([2]; 1 wt %, 50 μL, then water): the sweetness lasted for a certain time
Effect of previous intake on the sweetness of the sweetener [3]: effect of reinforcing the sweetness of the sweetener
